According to US20060178357A1, “Chphalosporin-derived mercaptans as inhibitors of serine and metallo-beta-lactamases” (priority 2005, published 2006):

Assays:
[1] = tested on: class B β-lactamases (L1 metallo-β-lactamase derived from Stenotrophomonas maltophilia; metallo-β-lactamase derived from Bacillus cereus); experiment: β-lactamase inhibition (IC50, nitrocefin hydrolysis) against class B metallo-β-lactamases; assay type: biochemical; conditions: 4 min incubation of inhibitor and enzyme, substrate nitrocefin, 480 nm; statement in words summarising Table 1
Protocol: (§1) Representative compounds of the invention were evaluated as inhibitors of two serine β-lactamases: Enterobacter cloacae P99 (class C), TEM-1 (class A), as well as two class B enzymes: the L1 metallo-β-lactamse derived from Stenotrophomonas maltophilia) and the metallo-β-lactamase derived from the Bacillus cereus microorganism. The IC50 value of each compound was determined as follows. Assay method involves 4 min incubation of a solution of inhibitor and enzyme (0.1 to 1 μM in enzyme), followed by transfer of an aliquot into a dilute solution of the substrate nitrocefin. Hydrolysis is monitored spectrophotometrically at 480 nm for 1 min. The rate is constant throughout this period. Error is ±10%, based on multiple experiments.

[2] = target: Enterobacter cloacae P99 (class C) β-lactamase (Enterobacter cloacae, UniProt P05364); experiment: β-lactamase inhibition (IC50, nitrocefin hydrolysis) against class C serine β-lactamase; assay type: biochemical; conditions: 4 min incubation of inhibitor and enzyme, substrate nitrocefin, 480 nm; comparison in words summarising Table 1
Protocol: as §1

Chain of Enterobacter cloacae P99 (class C) β-lactamase (P05364 21-381): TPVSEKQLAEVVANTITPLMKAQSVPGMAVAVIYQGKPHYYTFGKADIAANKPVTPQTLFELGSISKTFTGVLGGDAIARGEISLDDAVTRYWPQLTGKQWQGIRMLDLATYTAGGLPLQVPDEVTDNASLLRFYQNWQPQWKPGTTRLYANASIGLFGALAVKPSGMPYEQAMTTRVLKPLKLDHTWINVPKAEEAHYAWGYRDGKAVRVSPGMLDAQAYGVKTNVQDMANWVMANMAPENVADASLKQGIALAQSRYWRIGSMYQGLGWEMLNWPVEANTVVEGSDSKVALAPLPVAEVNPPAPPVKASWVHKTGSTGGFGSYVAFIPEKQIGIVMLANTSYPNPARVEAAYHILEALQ

| Structure (SMILES) | ability to inhibit the class B β-lactamases [1] | inhibition activity against a representative class C β-lactamase relative to tazobactam [2] |
| --- | --- | --- |
| CC(=O)OCC1=C(C(=O)[O-])N2C(=O)C(CS)C2SC1.[Na+] (stereo not drawn) [Compound 12, Sodium salt of 7β-(mercaptomethyl)cephalosporanate] | possess the ability to inhibit the class B β-lactamases | – |
| CC(=O)OCC1=C(C(=O)[O-])N2C(=O)C(CS)C2S(=O)(=O)C1.[Na+] (stereo not drawn) [Compound 15, Sodium salt of 7β-(mercaptomethyl)cephalosporanate-1,1-dioxide] | possess the ability to inhibit the class B β-lactamases | – |
| CC(=O)OCC1=C(C(=O)[O-])N2C(=O)C(CS)C2[S+]([O-])C1.[Na+] (stereo not drawn) [Compound 17, Sodium salt of 7β-(mercaptomethyl)cephalosporanate-1β-oxide] | possess the ability to inhibit the class B β-lactamases | – |
| CC(=O)OCC1=C(C(=O)[O-])N2C(=O)C(CS)C2[S+]([O-])C1.[Na+] (stereo not drawn) [Compound 19, Sodium salt of 7α-(mercaptomethyl)cephalosporanate-1β-oxide] | possess the ability to inhibit the class B β-lactamases | – |
| CC(=O)OCC1=C(C(=O)[O-])N2C(=O)C(CS)C2S(=O)(=O)C1.[Na+] (stereo not drawn) [Compound 22, Sodium salt of 7α-(mercaptomethyl)cephalosporanate-1,1-dioxide] | possess the ability to inhibit the class B β-lactamases | superior to tazobactam |
| CC(=O)OCC1=C(C(=O)[O-])N2C(=O)C(CS)C2SC1.[Na+] (stereo not drawn) [Compound 26, Sodium salt of 7α-(mercaptomethyl)cephalosporanate] | possess the ability to inhibit the class B β-lactamases | superior to tazobactam |
| CC(=O)OCC1=C(C(=O)[O-])N2C(=O)C(CS)C2[S+]([O-])C1.[Na+] (stereo not drawn) [Compound 29, Sodium salt of 7α-(mercaptomethyl)cephalosporanate-1α-oxide] | possess the ability to inhibit the class B β-lactamases | superior to tazobactam |
| C[C@]1(Cn2ccnn2)[C@H](C(=O)O)N2C(=O)C[C@H]2S1(=O)=O [tazobactam, reference compound] | does not possess such ability | – |
